Paper PMC10866072, “Design, synthesis, molecular modelling and biological evaluation of novel 6-amino-5-cyano-2-thiopyrimidine derivatives as potent anticancer agents against leukemia and apoptotic inducers” (Journal of Enzyme Inhibition and Medicinal Chemistry, 2024)

Experiments:
[1] = test system: CCRF-CEM; assay type: cell-based; conditions: Homo sapiens, one dose 10^-5 M, 48 h
[2] = test system: HL-60(TB); assay type: cell-based; conditions: Homo sapiens, one dose 10^-5 M, 48 h
[3] = test system: K-562; assay type: cell-based; conditions: Homo sapiens, K562, one dose 10^-5 M, 48 h
[4] = test system: MOLT-4; assay type: cell-based; conditions: Homo sapiens, one dose 10^-5 M, 48 h, read-out: % growth
[5] = test system: RPMI-8226; assay type: cell-based; conditions: Homo sapiens, one dose 10^-5 M, 48 h
[6] = test system: SR; assay type: cell-based; conditions: Homo sapiens, one dose 10^-5 M, 48 h
[7] = test system: A549/ATCC; assay type: cell-based; conditions: Homo sapiens, one dose 10^-5 M, 48 h
[8] = test system: EKVX; assay type: cell-based; conditions: Homo sapiens, one dose 10^-5 M, 48 h
[9] = test system: HOP-62; assay type: cell-based; conditions: Homo sapiens, one dose 10^-5 M, 48 h
[10] = test system: HOP-92; assay type: cell-based; conditions: Homo sapiens, one dose 10^-5 M, 48 h
[11] = test system: NCI-H226; assay type: cell-based; conditions: Homo sapiens, one dose 10^-5 M, 48 h
[12] = test system: NCI-H23; assay type: cell-based; conditions: Homo sapiens, one dose 10^-5 M, 48 h, read-out: % growth
[13] = test system: NCI-H460; assay type: cell-based; conditions: Homo sapiens, one dose 10^-5 M, 48 h, read-out: % growth
[14] = test system: NCI-H522; assay type: cell-based; conditions: Homo sapiens, one dose 10^-5 M, 48 h
[15] = test system: HCC-2998; assay type: cell-based; conditions: Homo sapiens, one dose 10^-5 M, 48 h
[16] = test system: HCT-116; assay type: cell-based; conditions: Homo sapiens, one dose 10^-5 M, 48 h, read-out: % growth
[17] = test system: HCT-15; assay type: cell-based; conditions: Homo sapiens, one dose 10^-5 M, 48 h, read-out: % growth
[18] = test system: HT29; assay type: cell-based; conditions: Homo sapiens, HT-29, one dose 10^-5 M, 48 h
[19] = test system: KM12; assay type: cell-based; conditions: Homo sapiens, one dose 10^-5 M, 48 h
[20] = test system: SW-620; assay type: cell-based; conditions: Homo sapiens, one dose 10^-5 M, 48 h
[21] = test system: SF-268; assay type: cell-based; conditions: Homo sapiens, one dose 10^-5 M, 48 h, read-out: % growth
[22] = test system: SF-295; assay type: cell-based; conditions: Homo sapiens, one dose 10^-5 M, 48 h
[23] = test system: SF-539; assay type: cell-based; conditions: Homo sapiens, one dose 10^-5 M, 48 h
[24] = test system: SNB-19; assay type: cell-based; conditions: Homo sapiens, one dose 10^-5 M, 48 h, read-out: % growth
[25] = test system: SNB-75; assay type: cell-based; conditions: Homo sapiens, one dose 10^-5 M, 48 h
[26] = test system: U251; assay type: cell-based; conditions: Homo sapiens, U-251, one dose 10^-5 M, 48 h
[27] = test system: LOX IMVI; assay type: cell-based; conditions: Homo sapiens, one dose 10^-5 M, 48 h, read-out: % growth
[28] = test system: MALME-3M; assay type: cell-based; conditions: Homo sapiens, one dose 10^-5 M, 48 h
[29] = test system: M14; assay type: cell-based; conditions: Homo sapiens, one dose 10^-5 M, 48 h
[30] = test system: MDA-MB-435; assay type: cell-based; conditions: Homo sapiens, one dose 10^-5 M, 48 h, read-out: % growth
[31] = test system: SK-MEL-2; assay type: cell-based; conditions: Homo sapiens, one dose 10^-5 M, 48 h
[32] = test system: SK-MEL-28; assay type: cell-based; conditions: Homo sapiens, one dose 10^-5 M, 48 h
[33] = test system: SK-MEL-5; assay type: cell-based; conditions: Homo sapiens, one dose 10^-5 M, 48 h, read-out: % growth
[34] = test system: UACC-257; assay type: cell-based; conditions: Homo sapiens, one dose 10^-5 M, 48 h
[35] = test system: UACC-62; assay type: cell-based; conditions: Homo sapiens, one dose 10^-5 M, 48 h
[36] = test system: IGROV1; assay type: cell-based; conditions: Homo sapiens, IGROV-1, one dose 10^-5 M, 48 h, read-out: % growth
[37] = test system: OVCAR-3; assay type: cell-based; conditions: Homo sapiens, one dose 10^-5 M, 48 h
[38] = test system: OVCAR-4; assay type: cell-based; conditions: Homo sapiens, one dose 10^-5 M, 48 h
[39] = test system: OVCAR-5; assay type: cell-based; conditions: Homo sapiens, one dose 10^-5 M, 48 h
[40] = test system: OVCAR-8; assay type: cell-based; conditions: Homo sapiens, one dose 10^-5 M, 48 h
[41] = test system: SK-OV-3; assay type: cell-based; conditions: Homo sapiens, one dose 10^-5 M, 48 h
[42] = test system: 786-0; assay type: cell-based; conditions: Homo sapiens, one dose 10^-5 M, 48 h
[43] = test system: A498; assay type: cell-based; conditions: Homo sapiens, one dose 10^-5 M, 48 h
[44] = test system: ACHN; assay type: cell-based; conditions: Homo sapiens, one dose 10^-5 M, 48 h
[45] = test system: CAKI-1; assay type: cell-based; conditions: Homo sapiens, CAKI-1, 48 h, one dose 10^-5 M, 48 h
[46] = test system: RXF 393; assay type: cell-based; conditions: Homo sapiens, RXF 393, 48 h, one dose 10^-5 M, 48 h, read-out: % growth
[47] = test system: SN12C; assay type: cell-based, human; conditions: Homo sapiens, one dose 10^-5 M, 48 h
[48] = test system: TK-10; assay type: cell-based; conditions: Homo sapiens, one dose 10^-5 M, 48 h
[49] = test system: UO-31; assay type: cell-based; conditions: Homo sapiens, UO-31, 48 h, one dose 10^-5 M, 48 h
[50] = test system: PC-3; assay type: cell-based; conditions: Homo sapiens, one dose 10^-5 M, 48 h
[51] = test system: DU-145; assay type: cell-based; conditions: Homo sapiens, one dose 10^-5 M, 48 h
[52] = test system: MCF7; assay type: cell-based; conditions: Homo sapiens, one dose 10^-5 M, 48 h, read-out: % growth
[53] = test system: MDA-MB-231/ATCC; assay type: cell-based; conditions: Homo sapiens, one dose 10^-5 M, 48 h
[54] = test system: HS 578T; assay type: cell-based; conditions: Homo sapiens; one dose 10^-5 M, 48 h; HS 578T; read-out: % growth
[55] = test system: T-47D; assay type: cell-based; conditions: Homo sapiens, T47D, one dose 10^-5 M, 48 h, read-out: % growth
[56] = test system: MDA-MB-468; assay type: cell-based; conditions: Homo sapiens, one dose 10^-5 M, 48 h
[57] = test system: full NCI 60 cell lines panel

N=C(NN=Cc1ccc(Cl)cc1)c1c(N)nc(S)nc1-c1ccc(Cl)cc1 [Compound 4h, 4-amino-6–(4-chlorophenyl)-N'-[(4-chlorophenyl)methylene]-2-mercapto pyrimidine-5-carboximidohydrazide]
% cell growth at 10 µM [1]: 75.5%
% growth at 10 µM [2]: 101%
% growth at 10 µM [3]: 86%
activity at 10 µM [4]: 85.8%
% growth at 10 µM [5]: 83.8%
percent cell growth at 10 µM [6]: 86.8%
% growth at 10 µM [7]: 93.1%
% cell growth at 10 µM [8]: 75%
% growth at 10 µM [9]: 95.6%
% growth at 10 µM [10]: 84.2%
% growth at 10 µM [11]: 99%
activity at 10 µM [12]: 93.7%
activity at 10 µM [13]: 93.7%
% growth at 10 µM [14]: 85.4%
% growth at 10 µM [15]: 103%
activity at 10 µM [16]: 86%
activity at 10 µM [17]: 90.4%
% growth at 10 µM [18]: 99%
% growth at 10 µM [19]: 91.9%
% growth at 10 µM [20]: 103%
activity at 10 µM [21]: 96%
% cell growth at 10 µM [22]: 90.2%
% growth at 10 µM [23]: 80.4%
activity at 10 µM [24]: 87.5%
% growth at 10 µM [25]: 83.5%
% growth at 10 µM [26]: 94%
activity at 10 µM [27]: 94.3%
% growth at 10 µM [28]: 107%
% growth at 10 µM [29]: 104%
activity at 10 µM [30]: 98.8%
% growth at 10 µM [31]: 101%
% cell growth at 10 µM [32]: 100%
activity at 10 µM [33]: 97.3%
percent cell growth at 10 µM [34]: 101%
% growth at 10 µM [35]: 81.8%
activity at 10 µM [36]: 78.8%
% growth at 10 µM [37]: 107%
% growth at 10 µM [38]: 83.1%
percent cell growth at 10 µM [39]: 95.4%
% growth of cells at 10 µM [40]: 94.8%
% growth at 10 µM [41]: 77.5%
% growth at 10 µM [42]: 98.5%
% growth at 10 µM [43]: 102%
% growth at 10 µM [44]: 77.2%
% growth at 10 µM [45]: 79.4%
activity at 10 µM [46]: 103%
% growth at 10 µM [47]: 91.8%
% cell growth at 10 µM [48]: 122%
% cell growth at 10 µM [49]: 66.3%
percent cell growth at 10 µM [50]: 79.6%
% growth at 10 µM [51]: 108%
activity at 10 µM [52]: 76.6%
% growth at 10 µM [53]: 69.7%
activity at 10 µM [54]: 93%
activity at 10 µM [55]: 72.1%
percent cell growth at 10 µM [56]: 99.3%
activity at 10 µM ([57]; Homo sapiens, 60 cell, 48 h, read-out: Mean % growth): 91%
activity on all 60 cancer cell lines tested (in words) ([57]; one dose): weak activity
